The IC50 is the concentration at which inhibition is half-maximal. Low readings indicate inhibition by little substance, high ones a need for much substance.

The first test concerns the target T1, human neutrophil elastase (HNE) (Homo sapiens, UniProt P08246).
T1 construct: purchased SERVA Electrophoresis GmbH, Heidelberg, Germany #20927.01
T1 sequence (P08246 30-267): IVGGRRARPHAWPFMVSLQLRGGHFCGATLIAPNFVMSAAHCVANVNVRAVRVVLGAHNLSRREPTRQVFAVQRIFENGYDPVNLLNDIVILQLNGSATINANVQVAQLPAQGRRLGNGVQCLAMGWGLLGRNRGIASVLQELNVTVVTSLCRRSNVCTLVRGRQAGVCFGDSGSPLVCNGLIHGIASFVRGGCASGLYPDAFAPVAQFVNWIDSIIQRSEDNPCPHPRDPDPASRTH
The experiment in a line: In vitro inhibition of HNE using a fluorogenic peptide substrate (Example I-A). Conditions: fluorogenic peptide substrate MeOSuc-Ala-Ala-Pro-Val-AMC, 384 MTP assay format. The test is classed as biochemical. The method, then: I. In vitro Enzyme Assays of Human Neutrophil Elastase (HNE)
The test solution is prepared by mixing 10 μl of test compound dilution, 20 μl of HNE enzyme dilution (final concentration 8-0.4 μU/ml, routinely 2.1 μU/ml) and 20 μl of substrate dilution (final concentration 1 mM-1 μM, routinely 20 μM), respectively. The solution is incubated for 0-2 hrs at 37° C. (routinely one hour). The fluorescence of the liberated AMC due to the enzymatic reaction is measured at 37° C. (TECAN spectra fluor plus plate reader). […] IC50 values are determined by RFU-versus-[I] plots. Km and Km(app.) values are determined by Lineweaver-Burk plots and converted to Ki values by Dixon plots.
`CC1=C(CO)C(c2ccc(C#N)cc2)NC(=O)N1c1cccc(C(F)(F)F)c1` (centres unmarked) [Example 1, 4-{5-(Hydroxymethyl)-6-methyl-2-oxo-1-[3-(trifluoromethyl)phenyl]-1,2,3,4-tetrahydropyrimidin-4-yl}benzonitrile] yielded an IC50 of 20 nM.

`CC1=C(C(=O)NC2CC2)C(c2ccc(C#N)cc2)NC(=O)N1c1cccc(C(F)(F)F)c1` (centres unmarked) [Example 6, 4-(4-Cyanophenyl)-N-cyclopropyl-6-methyl-2-oxo-1-[3-(trifluoromethyl)phenyl]-1,2,3,4-tetrahydropyrimidine-5-carboxamide]: the concentration for half-maximal inhibition (IC50) amounted to 200 nM. This IC50 lies about 10-fold higher than the previous one. `CC1=C(C(=O)NCc2ccccc2F)C(c2ccc(C#N)cc2)NC(=O)N1c1cccc(C(F)(F)F)c1` (centres unmarked) [Example 14] showed a half-maximal inhibitory concentration (IC50) of 1000 nM. Compared with the last compound, the IC50 is about 5-fold higher. The same measure, in the same setting: the figure for `CC1=C(C(=O)C2CCCCC2)C(c2ccc(C#N)cc2)NC(=O)N1c1cccc(C(F)(F)F)c1` (centres unmarked) [Example 21, 4-{5-(Cyclohexylcarbonyl)-6-methyl-2-oxo-1-[3-(trifluoromethyl)phenyl]-1,2,3,4-tetrahydropyrimidin-4-yl}benzonitrile] is 130 nM; for `COC(=O)c1coc(CN2C(=O)N(c3cccc(C(F)(F)F)c3)C(C)=C(C(=O)C3CC3)C2c2ccc(C#N)cc2)n1` (centres unmarked) [Example 43, Methyl 2-{[6-(4-cyanophenyl)-5-(cyclopropylcarbonyl)-4-methyl-2-oxo-3-[3-(trifluoromethyl)phenyl]-3,6-dihydropyrimidin-1(2H)-yl]methyl}-1,3-oxazole-4-carboxylate] it is 23 nM. The same measure, in the same setting: the figure for `CC1=C(C(=O)C2CC2)C(c2ccc(C#N)cc2)N(CC(=O)NS(=O)(=O)CC(F)(F)F)C(=O)N1c1cccc(C(F)(F)F)c1` (centres unmarked) [Example 45, 2-[6-(4-Cyanophenyl)-5-(cyclopropylcarbonyl)-4-methyl-2-oxo-3-[3-(trifluoromethyl)phenyl]-3,6-dihydropyrimidin-1(2H)-yl]-N-[(2,2,2-trifluoroethyl)sulfonyl]acetamide] is 20 nM.

Compound `CC1=C(C(=O)NS(=O)(=O)CC(F)(F)F)C(c2ccc(C#N)cc2)N(CC(=O)OC(C)(C)C)C(=O)N1c1cccc(C(F)(F)F)c1` (centres unmarked) [Example 69] gave an IC50 of 50 nM. The same measure, in the same setting: the figure for `CC1=C(C(=O)NS(=O)(=O)c2ccc(C#N)cc2)C(c2ccc(C#N)cc2)NC(=O)N1c1cccc(C(F)(F)F)c1` (centres unmarked) [Example 73] is 1000 nM; for `CC1=C(CCC(=O)O)C(c2ccc(C#N)cc2)NC(=O)N1c1cccc(C(F)(F)F)c1` (centres unmarked) [Example 78, 3-{4-(4-Cyanophenyl)-6-methyl-2-oxo-1-[3-(trifluoromethyl)phenyl]-1,2,3,4-tetrahydropyrimidin-5-yl}propanoic acid] it is 50 nM.

The next test concerns human polymorphonuclear cells (PMNs). The experiment in a line: In vitro PMN elastolysis assay (Example II-A). In kind it is cell-based. Conditions: at 1.2 μM; mean±s.e.m.; n=3 different donors at 3.6×10^5 cells per well. The method, then: This assay is used to determine the elastolytic potential of human polymorphonuclear cells (PMNs) and assess the proportion of degradation due to neutrophil elastase [cf. Z. W. She et al., Am. J. Respir. Cell. Mol. Biol. 9, 386-392 (1993)].
Tritiated elastin, in suspension, is coated on to a 96 well plate at 10 μg per well. Test and reference [ZD-0892 (J. Med. Chem. 40, 1876-1885, 3173-3181 (1997), WO 95/21855) and α1 protease inhibitor (α1PI)] compounds are added to the wells at the appropriate concentrations. Human PMNs are separated from peripheral venous blood of healthy donors and resuspended in culture media. The neutrophils are added to the coated wells at concentrations ranging between 1×10^6 to 1×10^5 cells per well. Porcine pancreatic elastase (1.3 μM) is used as a positive control for the assay, and α1PI (1.2 μM) is used as the positive inhibitor of neutrophil elastase. The cellular control is PMNs without compound at each appropriate cell density. The cells plus compounds are incubated in a humidified incubator at 37° C. for 4 hours. The plates are centrifuged to allow the harvest of cell supernatant only. […] The plates are dried until no liquid is visible in the wells and read in a beta counter for 3 minutes per well. […]
The compounds of this invention are evaluated for their inhibitory activity in this HNE-dependent model of neutrophil elastolysis.
Turning to “α1PI: α1 protease inhibitor, used as the positive inhibitor of neutrophil elastase”, the “inhibition of 3H-elastin elastolysis” value came to 83.46±3.97%.

The test is the same for the next values; noted with them: mean±s.e.m.; n=2 different donors at 3.6×10^5 cells per well.
Compound `COc1ccc(C(=O)N[C@H](C(=O)N2CCC[C@H]2C(=O)N[C@H](C(=O)C(F)(F)F)C(C)C)C(C)C)cc1` [ZD-0892] came in with an IC50 of 45.5 ± 7.75 nM.
